Data reported in patent US20230019236A1, “PROTEIN TYROSINE PHOSPHATASE INHIBITORS AND METHODS OF USE THEREOF” (Calico Life Sciences LLC, priority 2019, published 2023).

What follows are compounds tested against T1, His tagged full-length PTP1B protein (Homo sapiens, UniProt P18031) (assay: Mobility Shift Assay (MSA) used to determine potency of PTP1B inhibitors). Conditions: Table 2.
T1 construct: made in house
T1 sequence (P18031 with tags, fused parts or gaps): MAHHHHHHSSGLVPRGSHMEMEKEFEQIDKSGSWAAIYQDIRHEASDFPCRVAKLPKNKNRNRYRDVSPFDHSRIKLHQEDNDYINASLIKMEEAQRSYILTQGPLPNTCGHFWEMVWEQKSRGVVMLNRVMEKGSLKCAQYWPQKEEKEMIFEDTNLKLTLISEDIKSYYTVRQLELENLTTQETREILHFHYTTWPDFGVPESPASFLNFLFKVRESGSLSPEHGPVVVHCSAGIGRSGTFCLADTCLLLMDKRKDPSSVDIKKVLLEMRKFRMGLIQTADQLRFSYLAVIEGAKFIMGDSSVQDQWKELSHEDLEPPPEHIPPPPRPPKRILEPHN
Type: biochemical
Experimental: The enzymatic assay used to determine activity is a mobility shift assay using a LabChip EZ Reader by Caliper Life Sciences. The enzymatic reaction was carried out in assay buffer (50 mM HEPES pH 7.5, 1 mM EGTA, 10 mM EDTA, 0.01% Tween® 20, and 2 mM DTT). […] The enzyme (at 0.5 nM) was incubated with compound for 10 minutes at room temperature. […] The % inhibition was then used to calculate the IC50 values.

Row | Compound | IC50 [nM]
1 | O=C(COc1ccc2cc(O)c(N3CC(=O)NS3(=O)=O)c(F)c2c1)NCCC1CC1 [Compound 281, N-(2-cyclopropylethyl)-2-{[8-fluoro-6-hydroxy-7-(1,1,4-trioxo-1λ^6,2,5-thiadiazolidin-2-yl)naphthalen-2-yl]oxy}acetamide] | 10 to 100
2 | O=C1CN(c2c(O)cc3ccc(CCO)cc3c2F)S(=O)(=O)N1 [Compound 175, 5-[1-fluoro-3-hydroxy-7-(2-hydroxyethyl)naphthalen-2-yl]-1λ^6,2,5-thiadiazolidine-1,1,3-trione] | 10 to 100
3 | O=C1CN(c2c(O)cc3ccc(OCC(F)(F)F)cc3c2F)S(=O)(=O)N1 [Compound 197, 5-[1-fluoro-3-hydroxy-7-(2,2,2-trifluoroethoxy)naphthalen-2-yl]-1λ^6,2,5-thiadiazolidine-1,1,3-trione] | > 100
4 | C[C@H](O)CCOc1ccc2cc(O)c(N3CC(=O)NS3(=O)=O)c(F)c2c1 [Compound 147, 5-{1-fluoro-3-hydroxy-7-[(3S)-3-hydroxybutoxy]naphthalen-2-yl}-1λ^6,2,5-thiadiazolidine-1,1,3-trione] | 1 to 10
5 | C[C@@H](O)CCOc1ccc2cc(O)c(N3CC(=O)NS3(=O)=O)c(F)c2c1 [Compound 149, 5-{1-fluoro-3-hydroxy-7-[(3R)-3-hydroxybutoxy]naphthalen-2-yl}-1λ^6,2,5-thiadiazolidine-1,1,3-trione] | 1 to 10
6 | CNc1ccc2cc(O)c(N3CC(=O)NS3(=O)=O)c(F)c2c1 [Compound 107, 5-[1-fluoro-3-hydroxy-7-(methylamino)naphthalen-2-yl]-1λ^6,2,5-thiadiazolidine-1,1,3-trione] | > 100
7 | O=C1CN(c2c(O)cc3ccc(OCCN4CCCCC4)cc3c2F)S(=O)(=O)N1 [Compound 112, 5-{1-fluoro-3-hydroxy-7-[2-(piperidin-1-yl)ethoxy]naphthalen-2-yl}-1λ^6,2,5-thiadiazolidine-1,1,3-trione] | 10 to 100
8 | COc1ccc2c(F)c(O)c(N3CC(=O)NS3(=O)=O)c(F)c2c1 [Compound 117, 5-(1,4-difluoro-3-hydroxy-7-methoxynaphthalen-2-yl)-1λ^6,2,5-thiadiazolidine-1,1,3-trione] | 1 to 10
9 | O=C1CN(c2c(O)cc3ccc(NCCC4CC4)cc3c2F)S(=O)(=O)N1 [Compound 224, 5-{7-[(2-cyclopropylethyl)amino]-1-fluoro-3-hydroxynaphthalen-2-yl}-1λ^6,2,5-thiadiazolidine-1,1,3-trione] | 1 to 10
10 | O=C1CN(c2c(O)cc3ccc(C4=CCN(CC(F)(F)F)CC4)cc3c2F)S(=O)(=O)N1 [Compound 275, 5-{1-fluoro-3-hydroxy-7-[1-(2,2,2-trifluoroethyl)-1,2,3,6-tetrahydropyridin-4-yl]naphthalen-2-yl}-1λ^6,2,5-thiadiazolidine-1,1,3-trione] | 10 to 100
11 | CNCCOc1ccc2cc(O)c(N3CC(=O)NS3(=O)=O)c(F)c2c1 [Compound 143, 5-{1-fluoro-3-hydroxy-7-[2-(methylamino)ethoxy]naphthalen-2-yl}-1λ^6,2,5-thiadiazolidine-1,1,3-trione] | 10 to 100
12 | CC(C)(C)CCNc1ccc2cc(O)c(N3CC(=O)NS3(=O)=O)c(F)c2c1 [Compound 116, 5-{7-[(3,3-dimethylbutyl)amino]-1-fluoro-3-hydroxynaphthalen-2-yl}-1λ^6,2,5-thiadiazolidine-1,1,3-trione] | 10 to 100
13 | O=C1CN(c2c(O)cc3ccc(C4=CCN(S(=O)(=O)CCC(F)(F)F)C4)cc3c2F)S(=O)(=O)N1 [Compound 287, 5-{1-fluoro-3-hydroxy-7-[1-(3,3,3-trifluoropropane-1-sulfonyl)-2,5-dihydro-1H-pyrrol-3-yl]naphthalen-2-yl}-1λ^6,2,5-thiadiazolidine-1,1,3-trione] | 1 to 10
14 | O=C1CN(c2c(O)cc3ccc(OCCF)cc3c2F)S(=O)(=O)N1 [Compound 198, 5-[1-fluoro-7-(2-fluoroethoxy)-3-hydroxynaphthalen-2-yl]-1λ^6,2,5-thiadiazolidine-1,1,3-trione] | 10 to 100
15 | O=C1CN(c2c(O)cc3ccc(C(F)F)cc3c2F)S(=O)(=O)N1 [Compound 167, 5-[7-(difluoromethyl)-1-fluoro-3-hydroxynaphthalen-2-yl]-1λ^6,2,5-thiadiazolidine-1,1,3-trione] | > 100
16 | O=C1CN(c2c(O)cc3ccc(C4=CCNC4)cc3c2F)S(=O)(=O)N1 [Compound 265, 5-[7-(2,5-dihydro-1H-pyrrol-3-yl)-1-fluoro-3-hydroxynaphthalen-2-yl]-1λ^6,2,5-thiadiazolidine-1,1,3-trione] | 1 to 10
17 | CC1(COc2ccc3cc(O)c(N4CC(=O)NS4(=O)=O)c(F)c3c2)COC1 [Compound 230, 5-{1-fluoro-3-hydroxy-7-[(3-methyloxetan-3-yl)methoxy]naphthalen-2-yl}-1λ^6,2,5-thiadiazolidine-1,1,3-trione] | > 100

More lines, now with the values ahead:

Row | IC50 [nM] | Compound
18 | 1 to 10 | O=C1CN(c2c(O)c(Br)c3ccc(-c4ccn(S(=O)(=O)C5CC5)c4)cc3c2F)S(=O)(=O)N1 [Compound 231B, 5-{4-bromo-7-[1-(cyclopropanesulfonyl)-1H-pyrrol-3-yl]-1-fluoro-3-hydroxynaphthalen-2-yl}-1λ^6,2,5-thiadiazolidine-1,1,3-trione]
19 | 1 to 10 | N#Cc1c[nH]c(-c2ccc3cc(O)c(N4CC(=O)NS4(=O)=O)c(F)c3c2)n1 [Compound 321, 2-[8-fluoro-6-hydroxy-7-(1,1,4-trioxo-1λ^6,2,5-thiadiazolidin-2-yl)naphthalen-2-yl]-1H-imidazole-4-carbonitrile]
20 | 1 to 10 | O=C1CN(c2c(O)cc3ccc(CC4CCN(CC(F)(F)F)CC4)cc3c2F)S(=O)(=O)N1 [Compound 252, 5-(1-fluoro-3-hydroxy-7-{[1-(2,2,2-trifluoroethyl)piperidin-4-yl]methyl}naphthalen-2-yl)-1λ^6,2,5-thiadiazolidine-1,1,3-trione]
21 | 1 to 10 | O=C1CN(c2c(O)cc3ccc(-c4cnn(S(=O)(=O)C5CC5)c4)cc3c2F)S(=O)(=O)N1 [Compound 303, 5-{7-[1-(cyclopropanesulfonyl)-1H-pyrazol-4-yl]-1-fluoro-3-hydroxynaphthalen-2-yl}-1λ^6,2,5-thiadiazolidine-1,1,3-trione]
22 | < 1 | N#CCCCOc1ccc2cc(O)c(N3CC(=O)NS3(=O)=O)c(F)c2c1 [Compound 129, 4-{[8-fluoro-6-hydroxy-7-(1,1,4-trioxo-1λ^6,2,5-thiadiazolidin-2-yl)naphthalen-2-yl]oxy}butanenitrile]
23 | 1 to 10 | N#CC1(CNc2ccc3cc(O)c(N4CC(=O)NS4(=O)=O)c(F)c3c2)CC1 [Compound 181, 1-({[8-fluoro-6-hydroxy-7-(1,1,4-trioxo-1λ^6,2,5-thiadiazolidin-2-yl)naphthalen-2-yl]amino}methyl)cyclopropane-1-carbonitrile]
24 | < 1 | N#CCCCCS(=O)(=O)N1CC=C(c2ccc3cc(O)c(N4CC(=O)NS4(=O)=O)c(F)c3c2)C1 [Compound 293, 5-{3-[8-fluoro-6-hydroxy-7-(1,1,4-trioxo-1λ^6,2,5-thiadiazolidin-2-yl)naphthalen-2-yl]-2,5-dihydro-1H-pyrrole-1-sulfonyl}pentanenitrile]
25 | 1 to 10 | CC(C)C/C=C/c1ccc2cc(O)c(N3CC(=O)NS3(=O)=O)c(F)c2c1 [Compound 240, 5-{1-fluoro-3-hydroxy-7-[(1E)-4-methylpent-1-en-1-yl]naphthalen-2-yl}-1λ^6,2,5-thiadiazolidine-1,1,3-trione]
26 | 1 to 10 | CCC(=O)CCOc1ccc2cc(O)c(N3CC(=O)NS3(=O)=O)c(F)c2c1 [Compound 155, 5-{1-fluoro-3-hydroxy-7-[(3-oxopentyl)oxy]naphthalen-2-yl}-1λ^6,2,5-thiadiazolidine-1,1,3-trione]
27 | 1 to 10 | O=C1CN(c2c(O)cc3ccc(OC4CC4)cc3c2F)S(=O)(=O)N1 [Compound 223, 5-[7-(cyclopropyloxy)-1-fluoro-3-hydroxynaphthalen-2-yl]-1λ^6,2,5-thiadiazolidine-1,1,3-trione]
28 | 1 to 10 | Nc1cccc(CS(=O)(=O)N2CC=C(c3ccc4cc(O)c(N5CC(=O)NS5(=O)=O)c(F)c4c3)C2)c1 [Compound 194, 5-(7-{1-[(3-aminophenyl)methanesulfonyl]-2,5-dihydro-1H-pyrrol-3-yl}-1-fluoro-3-hydroxynaphthalen-2-yl)-1λ^6,2,5-thiadiazolidine-1,1,3-trione]
29 | 1 to 10 | O=C1CN(c2c(O)cc3ccc(OCCCn4cccn4)cc3c2F)S(=O)(=O)N1 [Compound 183, 5-{1-fluoro-3-hydroxy-7-[3-(1H-pyrazol-1-yl)propoxy]naphthalen-2-yl}-1λ^6,2,5-thiadiazolidine-1,1,3-trione]
30 | < 1 | O=C1CN(c2c(O)cc3ccc(C4=CCN(C(=O)C5CC5)C4)cc3c2F)S(=O)(=O)N1 [Compound 237, 5-{7-[1-(cyclopropanecarbonyl)-2,5-dihydro-1H-pyrrol-3-yl]-1-fluoro-3-hydroxynaphthalen-2-yl}-1λ^6,2,5-thiadiazolidine-1,1,3-trione]
31 | 1 to 10 | O=C1CN(c2c(O)cc3ccc(OCCNCCOC(F)(F)F)cc3c2F)S(=O)(=O)N1 [Compound 137, 5-[1-fluoro-3-hydroxy-7-(2-{[2-(trifluoromethoxy)ethyl]amino}ethoxy)naphthalen-2-yl]-1λ^6,2,5-thiadiazolidine-1,1,3-trione]
32 | 1 to 10 | C[C@H](O)CCCc1ccc2cc(O)c(N3CC(=O)NS3(=O)=O)c(F)c2c1 [Compound 153, 5-{1-fluoro-3-hydroxy-7-[(4S)-4-hydroxypentyl]naphthalen-2-yl}-1λ^6,2,5-thiadiazolidine-1,1,3-trione]
